From PubChem BioAssay (NCI)
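Five compound concentrations were applied to cells in 96-well plates for 48 hours; endpoints were derived by simple linear interpolation of the resulting dose-response curve. TGI denotes the concentration required for complete inhibition of growth.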

Legend:
Test in all cases: NCI tumour cell line growth inhibition, 48 h
T-47D breast = tested on: T-47D breast
OVCAR-5 ovarian = tested on: OVCAR-5 ovarian
COLO 205 colon = tested on: COLO 205 colon
NCI-H226 lung = tested on: NCI-H226 lung
HCC-2998 colon = tested on: HCC-2998 colon
SF-539 CNS = tested on: SF-539 CNS
SK-MEL-28 melanoma = tested on: SK-MEL-28 melanoma
M14 melanoma = tested on: M14 melanoma
SK-MEL-2 melanoma = tested on: SK-MEL-2 melanoma
PC-3 prostate = tested on: PC-3 prostate
KM12 colon = tested on: KM12 colon
ACHN renal = tested on: ACHN renal
EKVX NSCLC = tested on: EKVX NSCLC
SNB-19 CNS = tested on: SNB-19 CNS
OVCAR-8 ovarian = tested on: OVCAR-8 ovarian
SF-295 CNS = tested on: SF-295 CNS
MALME-3M melanoma = tested on: MALME-3M melanoma

Compound | TGI (T-47D breast) [µM] | TGI (OVCAR-5 ovarian) [µM] | TGI (COLO 205 colon) [µM] | TGI (NCI-H226 lung) [µM] | TGI (HCC-2998 colon) [µM] | TGI (SF-539 CNS) [µM] | TGI (SK-MEL-28 melanoma) [µM] | TGI (M14 melanoma) [µM] | TGI (SK-MEL-2 melanoma) [µM] | TGI (PC-3 prostate) [µM] | TGI (KM12 colon) [µM] | TGI (ACHN renal) [µM] | TGI (EKVX NSCLC) [µM] | TGI (SNB-19 CNS) [µM] | TGI (OVCAR-8 ovarian) [µM] | TGI (SF-295 CNS) [µM] | TGI (MALME-3M melanoma) [µM]
CC(C)C(=O)/C=C/c1ccc(Cl)cc1Cl | 25.7 | 30.7 | 32.7 | 41 | 30 | 34 | 30.6 | 20 | 27.6 | 32.8 | 13.7 | 29.7 | 31 | 29.3 | 22.8 | 30.9 | 28.2
COc1ccc(N2C(=O)C3c4[nH]c5ccc(OC)cc5c4C4CCC(c5ccccc5)CC4C3C2=O)cc1 (configuration not stated) | 86.3 | > 64.5 | > 86.1 | > 100 | 49.5 | 13.9 | 37 | > 56.8 | 47.4 | > 75.7 | > 56.3 | 34 | 52 | 28.8 | > 49.2 | 24.2 | 30.3
Clc1ccc(C2=Cc3nc2c(-c2ccccc2)c2ccc([nH]2)c(-c2ccccc2)c2nc(c(-c4ccccc4)c4ccc([nH]4)c3-c3ccccc3)C=C2)cc1 | > 62.5 | > 62.5 | > 62.5 | > 62.5 | > 62.5 | > 62.5 | > 62.5 | > 62.5 | > 62.5 | > 62.5 | > 62.5 | > 62.5 | > 62.5 | > 62.5 | > 62.5 | > 62.5 | > 62.5
N#CCc1nc(-c2cc3ccc(O)cc3oc2=O)cs1 | > 100 | > 100 | > 100 | > 100 | > 100 | > 100 | > 100 | > 100 | 66 | > 100 | > 100 | > 100 | > 100 | > 100 | > 100 | > 100 | > 100
COc1ccccc1CC1(O)OC(=O)c2ccccc21 (configuration not stated) | > 100 | > 100 | > 100 | > 100 | > 100 | > 100 | > 100 | > 100 | > 100 | > 100 | > 100 | > 100 | > 100 | > 100 | > 100 | > 100 | > 100
CCCCCCCCCCCCCC/C(C(=O)O)=C(\C)C(=O)O | > 100 | > 100 | > 100 | > 100 | > 100 | > 100 | > 100 | > 100 | > 100 | > 100 | > 100 | > 100 | > 100 | > 100 | > 100 | > 100 | > 100
COc1ccc(-n2nnc3c(C#N)c(C)c(-c4ccccc4)n3c2=O)cc1 | > 100 | > 57.6 | 10.6 | > 100 | > 33.2 | > 20 | > 100 | > 26.7 | > 100 | > 100 | > 100 | > 100 | > 26.1 | > 21.6 | > 70.8 | > 27.5 | > 100
CCOC(=O)n1ccc2c(C(=O)OC)c(C(=O)OC)cc(/C(=C/C(=O)OC)C(=O)OC)c21 | > 100 | > 100 | > 100 | > 100 | > 100 | > 100 | > 100 | > 100 | > 100 | > 100 | > 100 | > 100 | > 100 | > 100 | > 100 | > 100 | > 100
NC(=S)NN=C1Cc2ccccc2C1 | > 100 | > 100 | > 100 | > 100 | > 100 | > 100 | > 100 | > 100 | > 100 | > 100 | > 100 | > 100 | > 100 | > 100 | > 100 | > 100 | > 100
O=S(=O)(N1CCCCN(S(=O)(=O)C(F)(F)F)CCCN(S(=O)(=O)C(F)(F)F)CCCCN(S(=O)(=O)C(F)(F)F)CCCN(S(=O)(=O)C(F)(F)F)CCCCN(S(=O)(=O)C(F)(F)F)CCCN(S(=O)(=O)C(F)(F)F)CCCCN(S(=O)(=O)C(F)(F)F)CCC1)C(F)(F)F | > 31.6 | > 100 | > 100 | > 31.6 | > 31.6 | > 31.6 | > 31.6 | > 31.6 | > 100 | > 31.6 | > 31.6 | > 31.6 | > 31.6 | > 31.6 | > 31.6 | > 31.6 | > 31.6
CCOC(=O)c1nc2ccc(C(F)(F)F)cc2nc1NCc1ccc(F)cc1 | 84.8 | > 100 | 81 | > 100 | 78.3 | > 100 | > 100 | > 100 | > 100 | > 100 | > 100 | > 100 | > 100 | > 100 | > 100 | > 100 | > 100
O=C(Cc1ccccc1)Nc1nc2ccc(Cl)cc2c2nc(-c3ccco3)nn12 | > 100 | > 100 | > 100 | > 82.7 | > 100 | > 60.5 | > 100 | > 100 | > 100 | > 100 | > 100 | > 100 | > 100 | > 55.6 | > 100 | > 100 | > 100
CCCCCCCCCCCCCCCCCCOC(COP(=O)(O)OCC1OC(n2cc(F)c(=O)[nH]c2=O)CC1O)COP(=O)(O)OCC1OC(n2ccc(N)nc2=O)C(O)C1O (configuration not stated) | > 100 | > 100 | > 72.9 | > 100 | > 70.5 | 31.1 | > 100 | 62.5 | > 100 | 78.8 | > 100 | > 100 | > 100 | 41.2 | > 100 | > 100 | > 100
COc1cc(/C=C2\CC3C4CC[C@H]5C[C@@H](O)CC[C@]5(C)C4CC[C@]3(C)\C2=N\O)cc(OC)c1OC (some centres not stated) | 36.9 | > 100 | 29.4 | 45.1 | 38.6 | 34.1 | 66.9 | 37.3 | 31.7 | 55.1 | 56.7 | 39.8 | > 100 | > 100 | > 100 | 15.4 | 42.8
Oc1cc(F)cc2cccnc12 | > 74.7 | > 100 | > 53.4 | > 100 | > 100 | 30 | > 100 | 22.1 | > 100 | > 100 | > 100 | > 92.1 | > 100 | > 100 | > 100 | > 100 | > 100
CCC12CN(C(=O)OC)C3C(Br)C1CCC(=O)C32 (configuration not stated) | > 100 | > 100 | > 100 | > 100 | > 100 | > 100 | > 100 | > 100 | > 100 | > 100 | > 100 | > 100 | > 100 | > 100 | > 100 | > 100 | > 100
Cc1cc(=O)[nH]c(S(=O)(=O)NC(=O)Nc2cccc(Cl)c2)n1 | > 100 | > 100 | > 100 | > 100 | > 100 | > 100 | > 100 | > 100 | > 100 | > 100 | 32.3 | > 100 | > 100 | > 100 | > 100 | > 100 | > 100
CCOC(=O)/C=C(/C(=O)OCC)n1cc(C)c(=O)[nH]c1=O | 17.5 | 13.3 | 4.07 | 10.7 | 17.5 | 27.3 | 15.5 | 3.91 | 18.4 | 20.6 | 29 | 7.51 | 15.6 | 32.2 | 9.81 | 31.6 | 4.48
CCOC(=O)c1cccc(N=Nc2ncc(/C=C/C(=O)OC)[nH]2)c1 | 89.7 | > 100 | 49 | > 100 | 43.8 | > 100 | > 100 | 76 | > 100 | > 100 | 82.2 | 72 | > 100 | > 100 | 63.6 | 63.2 | 70.3
CC(O)/C=C/C1OC(=O)CC1Nc1ccc(C=O)cc1 (configuration not stated) | > 100 | > 100 | > 100 | > 100 | > 100 | > 100 | > 100 | 41.9 | 74.7 | > 100 | > 100 | > 100 | > 100 | > 100 | > 100 | > 100 | > 100
CNc1ccc(Cl)cc1C(=O)N1CCC[C@H]1CO | > 100 | > 100 | > 100 | > 100 | > 100 | > 100 | > 100 | > 100 | > 100 | > 100 | > 100 | > 100 | > 100 | > 100 | > 100 | > 100 | > 100
